This is an account of results in patent US10308648B2, “Inhibitors of cyclin-dependent kinase 7 (CDK7)” (Syros Pharmaceuticals, Inc., priority 2014, dated 2019).

Each structure is given as a SMILES string. Counter-ions that a name gives are not always drawn.

For one test, the target named is CDK7 (Homo sapiens (Human), UniProt P50613). Briefly: CDK7 kinase activity (Life Technologies Adapta kinase assay). As to conditions: 10 μM down to 0.514 nM, 3-fold serial dilutions, read-out: CDK7 Inhibition (IC50). The format is biochemical. The procedure:
Compounds of the invention were assayed for CDK7 activity at Life Technologies™ (Grand Island, N.Y.) using their commercially available Adapta® kinase assay services. Test compounds were tested at concentrations ranging from 10 μM down to 0.514 nM in a series of 3-fold serial dilutions. Details of this assay, including substrates used, are available on the Life Technologies web site (http://www.lifetechnologies.com/us/en/home/life-science/drug-discovery/target-and-lead-identification-and-validation/kinasebiology/kinase-activity-assays.html). The results of the assay are shown below in Table 3 where “A” represents a calculated IC50 of less than 100 nM; “B” represents a calculated IC50 of between 100 nM and 1 μM; and “C” represents a calculated IC50 of greater than 1 μM.

The subject of the next test is Jurkat cells. Description: Inhibition of proliferation of Jurkat cells (CellTiter-Glo). Format: cell-based. As to conditions: Homo sapiens, 72 hour proliferation assay. Here is the method:
Representative compounds of the invention were tested at different concentrations (from 10 μM to […]; 0.5 log serial dilutions) for their ability to inhibit the proliferation of Jurkat cells. Known CDK inhibitors flavopiridol and triptolide were used as positive controls. Cells were grown in RPMI 1640+10% FBS+1% Glutamax. The cells were supplemented with FBS (Life Technologies) and 100 U·mL^−1 penicillin, 100 μg·mL^−1 streptomycin (Invitrogen) and cultured at 37° C. in a humidified chamber in the presence of 5% CO2. Proliferation assays were conducted over a 72 hour time period. CellTiter-Glo® (Promega Corporation, Madison, Wis. USA) was used to assess the anti-proliferative effects of the compounds following manufacturer's directions and utilizing the reagents supplied with the CellTiter-Glo® kit. In this table, “A” represents an IC50 of less than 500 nM; “B” an IC50 of between 500 nM and 5 μM; and “C” an IC50 of greater than 5 μM.

Chain of CDK7 (P50613 whole entry): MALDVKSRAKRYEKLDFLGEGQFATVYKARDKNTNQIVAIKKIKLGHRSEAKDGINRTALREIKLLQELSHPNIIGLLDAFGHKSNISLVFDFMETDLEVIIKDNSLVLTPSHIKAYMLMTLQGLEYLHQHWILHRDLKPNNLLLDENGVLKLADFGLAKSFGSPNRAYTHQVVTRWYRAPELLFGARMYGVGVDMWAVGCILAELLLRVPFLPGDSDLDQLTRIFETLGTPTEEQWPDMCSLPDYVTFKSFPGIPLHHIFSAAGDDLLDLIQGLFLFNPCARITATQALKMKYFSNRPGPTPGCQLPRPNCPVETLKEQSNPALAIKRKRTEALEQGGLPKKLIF
Chain of CDK7 (P51946 whole entry partner): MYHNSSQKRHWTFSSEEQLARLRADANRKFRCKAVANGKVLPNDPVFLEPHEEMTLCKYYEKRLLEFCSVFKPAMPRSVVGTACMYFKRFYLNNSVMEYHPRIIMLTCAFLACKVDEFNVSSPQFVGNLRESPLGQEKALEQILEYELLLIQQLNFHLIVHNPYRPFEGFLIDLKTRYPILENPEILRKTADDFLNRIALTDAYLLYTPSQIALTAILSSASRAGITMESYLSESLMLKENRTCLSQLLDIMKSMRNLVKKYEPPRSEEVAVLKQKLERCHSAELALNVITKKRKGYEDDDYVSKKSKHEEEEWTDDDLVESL
Chain of CDK7 (P51948 whole entry partner): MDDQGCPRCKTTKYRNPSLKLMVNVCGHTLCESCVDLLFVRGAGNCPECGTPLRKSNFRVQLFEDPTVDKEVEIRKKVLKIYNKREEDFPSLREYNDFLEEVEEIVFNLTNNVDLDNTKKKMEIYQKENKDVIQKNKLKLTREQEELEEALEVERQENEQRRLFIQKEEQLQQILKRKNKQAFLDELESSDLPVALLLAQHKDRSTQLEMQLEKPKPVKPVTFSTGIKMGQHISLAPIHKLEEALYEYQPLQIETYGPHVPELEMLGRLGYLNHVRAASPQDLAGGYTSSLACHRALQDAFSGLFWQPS

Regarding `Nc1ccc(C(=O)N[C@H]2C[C@H](O)C[C@@H](Nc3ncc(Cl)c(-c4c[nH]c5ccccc45)n3)C2)cc1` (racemic) [Compound 101, (+/−)-4-amino-N-(3-(5-chloro-4-(1H-indol-3-yl)pyrimidin-2-ylamino)-5-hydroxycyclohexyl)benzamide], the concentration for half-maximal inhibition (IC50) at CDK7 was less than 100 nM; in the test on Jurkat cells it was 500 to 5000 nM.

As for `Nc1ccc(C(=O)NC2CC(F)CC(Nc3ncc(Cl)c(-c4c[nH]c5ccccc45)n3)C2)cc1` (racemic) [Compound 110, (+/−)-4-amino-N-(3-(5-chloro-4-(1H-indol-3-yl)pyrimidin-2-ylamino)-5-fluorocyclohexyl)benzamide], on CDK7, the IC50 lay in the range of 100 to 1000 nM.

Take `Nc1ccc(C(=O)NC23CC4CC(C2)CC(Nc2ncc(Cl)c(-c5c[nH]c6ccccc56)n2)(C4)C3)cc1` [Compound 100, 4-amino-N-(3-(5-chloro-4-(1H-indol-3-yl)pyrimidin-2-ylamino)tricyclo[3.3.1.1^3,7]decanyl)benzamide]: the concentration for half-maximal inhibition (IC50) at CDK7 is greater than 1000 nM.

As to `Nc1ccc(C(=O)N[C@H]2CCC[C@@H](Nc3ncc(Cl)c(-c4c[nH]c5ccccc45)n3)C2)cc1` [Compound 102, 4-amino-N-((1S,3R)-3-(5-chloro-4-(1H-indol-3-yl)pyrimidin-2-ylamino)cyclohexyl)benzamide], the IC50 at CDK7 was 100 to 1000 nM; in the test on Jurkat cells, greater than 5000 nM.

`Nc1ccc(C(=O)N[C@H]2CCC[C@@H](Nc3ncc(C4CC4)c(-c4c[nH]c5ccccc45)n3)C2)cc1` [Compound 103, 4-amino-N-((1S,3R)-3-(5-cyclopropyl-4-(1H-indol-3-yl)pyrimidin-2-ylamino)cyclohexyl)benzamide.HCl]: the IC50 on CDK7 is 100 to 1000 nM; in the test on Jurkat cells, greater than 5000 nM.

For `Nc1ccc(C(=O)NC23CCCC(Nc4ncc(Cl)c(-c5c[nH]c6ccccc56)n4)(C2)C3)cc1` [Compound 104, 4-amino-N-(5-(5-chloro-4-(1H-indol-3-yl)pyrimidin-2-ylamino)bicyclo[3.1.1]heptan-1-yl)benzamide], the figures for the IC50 on CDK7 and in the test with Jurkat cells were 100 to 1000 nM and greater than 5000 nM, respectively.

Turning to `CN(C)CCCC(=O)Nc1ccc(C(=O)N[C@H]2CCC[C@@H](Nc3ncc(Cl)c(-c4c[nH]c5ccccc45)n3)C2)cc1` [Compound 105, N-((1S,3R)-3-((5-chloro-4-(1H-indol-3-yl)pyrimidin-2-yl)amino)cyclohexyl)-4-(4-(dimethylamino)butanamido)benzamide], the IC50 is less than 100 nM at CDK7 and 500 to 5000 nM with Jurkat cells.

For the compound `Nc1ccc(NC(=O)[C@H]2CCC[C@@H](Nc3ncc(Cl)c(-c4c[nH]c5ccccc45)n3)C2)cc1` [Compound 106, (1S,3R)—N-(4-aminophenyl)-3-(5-chloro-4-(1H-indol-3-yl)pyrimidin-2-ylamino)cyclohexanecarboxamide], the figures for the IC50 at CDK7 and with Jurkat cells were less than 100 nM and greater than 5000 nM, respectively.

For `N#Cc1cnc(N[C@@H]2CCC[C@H](NC(=O)c3ccc(N)cc3)C2)nc1-c1c[nH]c2ccccc12` [Compound 107, 4-amino-N-((1S,3R)-3-(5-cyano-4-(1H-indol-3-yl)pyrimidin-2-ylamino)cyclohexyl)benzamide], the IC50 on CDK7 is less than 100 nM; in the test with Jurkat cells, less than 500 nM.

Regarding `Nc1ccc(C(=O)N[C@H]2CCC[C@@H](Nc3ncc(Cl)c(-c4cccnc4)n3)C2)cc1` [Compound 108, 4-amino-N-((1S,3R)-3-(5-chloro-4-(pyridin-3-yl)pyrimidin-2-ylamino)cyclohexyl)benzamide], the concentration for half-maximal inhibition (IC50) on CDK7 was greater than 1000 nM; with Jurkat cells, greater than 5000 nM.

For `Nc1ccc(S(=O)(=O)N[C@H]2CCC[C@@H](Nc3ncc(Cl)c(-c4c[nH]c5ccccc45)n3)C2)cc1` [Compound 109, 4-amino-N-((1S,3R)-3-(5-chloro-4-(1H-indol-3-yl)pyrimidin-2-ylamino)cyclohexyl)benzenesulfonamide], the IC50 fell in the range of 100 to 1000 nM on CDK7 and 500 to 5000 nM with Jurkat cells.

As to `Nc1ccc(C(=O)N[C@H]2CCC[C@@H](Nc3ncc(Cl)c(-c4c[nH]c5ccccc45)n3)C2)cc1F` [Compound 111, 4-amino-N-((1S,3R)-3-(5-chloro-4-(1H-indol-3-yl)pyrimidin-2-ylamino)cyclohexyl)-3-fluorobenzamide], the values for the IC50 on CDK7 and in the test with Jurkat cells were 100 to 1000 nM and greater than 5000 nM, respectively.

On to `Nc1ccc(C(=O)N[C@H]2CCC[C@@H](Nc3ncc(Cl)c(-c4c[nH]c5ccccc45)n3)C2)c(F)c1` [Compound 112, 4-amino-N-((1S,3R)-3-(5-chloro-4-(1H-indol-3-yl)pyrimidin-2-ylamino)cyclohexyl)-2-fluorobenzamide], for which the 50% inhibitory concentration (IC50) at CDK7 lay within 100 to 1000 nM; in the test with Jurkat cells it was 500 to 5000 nM.

In the case of `NC(=O)C(=O)Nc1ccc(C(=O)N[C@H]2CCC[C@@H](Nc3ncc(Cl)c(-c4c[nH]c5ccccc45)n3)C2)cc1` [Compound 113, N1-(4-(((1S,3R)-3-((5-chloro-4-(1H-indol-3-yl)pyrimidin-2-yl)amino)cyclohexyl)carbamoyl)phenyl)oxalamide], the 50% inhibitory concentration (IC50) at CDK7 lay within 100 to 1000 nM; in the test on Jurkat cells, 500 to 5000 nM.

Turning to `Nc1ccc(C(=O)N[C@H]2CCC[C@@H](Nc3nccc(-c4c[nH]c5ccccc45)n3)C2)cc1` [Compound 114, N-((1S,3R)-3-(4-(1H-indol-3-yl)pyrimidin-2-ylamino)cyclohexyl)-4-aminobenzamide], at CDK7, the half-maximal inhibitory concentration (IC50) was greater than 1000 nM.
